Results as given in the supplement of paper PMC11208160.

Assay: recombinant UMI read abundance after kanamycin selection (control-corrected) (log10(CPM+1)); higher = more efficient recombination; extreme values may be limits of the assay; sequences stand for … in AGTGCAGAGAAAATCGGCCAGTTTTCTCTGCCTGCAGTCCGCATGCCGTGGGACCCCTTGGGTTCTAACCTGTTGCCTAGATTTATGCAGCGGACTGCCTTTCTCCCAAAGTGATAAACCGG…AGGTTGGTTTCACT; site = the 11-nt donor
How it was run: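 Each donor and donor-binding-loop pair was tracked by a 12-nt UMI on a plasmid carrying a promoterless kanamycin gene. With a second plasmid supplying a fixed target and T7-inducible IS621 bridge recombinase, the pool was plated in Escherichia coli on IPTG (0.07 mM) plus kanamycin or unselected. Sequencing of recombinant UMIs across the donor–target junction gave counts expressed as log10(CPM+1) after replicate averaging and control-derived scaling.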
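Further: IS621 bridge recombinase in Escherichia coli cells against a fixed T5 target plasmid.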

Sequence | recombinant UMI read abundance (log10)
GGCCAGGCATGGACCGGTTTTCCCGGTAATCCGTATTTGTT (site GGCCAGGCTAA) | 0.00326
GGCCCAACATGGACCGGTTTTCCCGGTAATCCGTATTTGTA (site GGACCAACTTA) | 0.0271
GGCCCAACATGGACCGGTTTTCCCGGTAATCCGTATTTGTA (site GGCCCAACTTA) | 0.848
GGCCCAACATGGACCGGTTTTCCCGGTAATCCGTATTTGTA (site GGGCCAACTTA) | 0
GGCCCAACATGGACCGGTTTTCCCGGTAATCCGTATTTGTA (site GGTCCAACTTA) | 0.00413
GGCCCACCATGGACCGGTTTTCCCGGTAATCCGTATTTGTG (site GGCCCACCTCA) | 0.0252
GGCCCCGCATGGACCGGTTTTCCCGGTAATCCGTATTTGAT (site GGCCCCGCTAT) | 1.24
GGCCCGCCATGGACCGGTTTTCCCGGTAATCCGTATTTGAA (site GGCCCGCCTTT) | 0
GGCCCGTCATGGACCGGTTTTCCCGGTAATCCGTATTTGCA (site GGCCCGTCTTG) | 1.73
GGCCTGGCATGGACCGGTTTTCCCGGTAATCCGTATTTGAG (site GGCCTGGCTCT) | 0.666
GGCGACCCATGGACCGGTTTTCCCGGTAATCCGTATTTGCC (site GGCGACCCTGG) | 0
GGCGTGGCATGGACCGGTTTTCCCGGTAATCCGTATTTGCA (site GGCGTGGCTTG) | 2.55
GGCTACACATGGACCGGTTTTCCCGGTAATCCGTATTTGCA (site GGCTACACTTG) | 1.86
GGCTAGACATGGACCGGTTTTCCCGGTAATCCGTATTTGAC (site GGCTAGACTGT) | 2.02
GGCTCAACATGGACCGGTTTTCCCGGTAATCCGTATTTGCT (site GGCTCAACTAG) | 0
GGCTGCTCATGGACCGGTTTTCCCGGTAATCCGTATTTGTG (site GGCTGCTCTCA) | 0.427

Sequence | recombinant UMI read abundance (log10)
GGCTTCCCATGGACCGGTTTTCCCGGTAATCCGTATTTGTC (site GGCTTCCCTGA) | 0
GGGAAACCATGGACCGGTTTTCCCGGTAATCCGTATTTGGC (site GGGAAACCTGC) | 0
GGGAAGCCATGGACCGGTTTTCCCGGTAATCCGTATTTGGG (site GAGAAGCCTCC) | 0.00654
GGGAAGCCATGGACCGGTTTTCCCGGTAATCCGTATTTGGG (site GCGAAGCCTCC) | 0
GGGAAGCCATGGACCGGTTTTCCCGGTAATCCGTATTTGGG (site GGGAAGCCTCC) | 0.00361
GGGAAGCCATGGACCGGTTTTCCCGGTAATCCGTATTTGGG (site GTGAAGCCTCC) | 0.0194
GGGACGTCATGGACCGGTTTTCCCGGTAATCCGTATTTGTT (site GGAACGTCTAA) | 0.547
GGGACGTCATGGACCGGTTTTCCCGGTAATCCGTATTTGTT (site GGCACGTCTAA) | 0.0541
GGGACGTCATGGACCGGTTTTCCCGGTAATCCGTATTTGTT (site GGGACGTCTAA) | 1.78
GGGACGTCATGGACCGGTTTTCCCGGTAATCCGTATTTGTT (site GGTACGTCTAA) | 0.0147
GGGAGGACATGGACCGGTTTTCCCGGTAATCCGTATTTGCC (site GGGAGGACTGG) | 2.04
GGGATAACATGGACCGGTTTTCCCGGTAATCCGTATTTGCC (site GGGATAACTGG) | 0
GGGATGACATGGACCGGTTTTCCCGGTAATCCGTATTTGCT (site GGGATGACTAG) | 2.32
GGGATTGCATGGACCGGTTTTCCCGGTAATCCGTATTTGAC (site GGGATTGCTGT) | 2.05
GGGCAGCCATGGACCGGTTTTCCCGGTAATCCGTATTTGGG (site GGGCAGCCTCC) | 0.0377
GGGCATGCATGGACCGGTTTTCCCGGTAATCCGTATTTGAA (site GGGCATGCTTT) | 1.59
